Results as given in article PMC12405493, “Selective ubiquitination of drug-like small molecules by the ubiquitin ligase HUWE1” (Nature Communications, 2025).

Columns and labels:
[1] = molecular target: T1, vinylthioether-linked HUWE1^HECT-Ub complex (Homo sapiens, UniProt Q7Z6Z7); experiment: Differential scanning fluorimetry (DSF) with HUWE1^HECT~Ub proxy; type: binding; settings: 10 μM protein
T1 construct: The preparation of the vinylthioether-linked HUWE1^HECT-Ub complex was also previously described; made in house; host or cells: bacteria (components)
Experimental: DSF was performed in 25 mM HEPES (pH 7.5), 100 mM NaCl, 1 mM TCEP and 0.4% (v/v) DMSO, using a CFX96 Touch Real-Time PCR Detection System (BioRad). 10 μM HUWE1^HECT and HUWE1^HECT-Ub, respectively, at a sample volume of 25 μL were denatured by a linear 25–95 °C gradient over 120 min in a presence of 10 x SYPRO Orange (Invitrogen). Tm-values were determined as the first derivative of the fluorescence curves, using CFX Maestro™ v.1.1 (Bio-Rad). Melting curves were plotted as normalized -d(fluorescence)/dt with Prism v.9.3.1 (GraphPad).

HUWE1^HECT = molecular target: T2, HUWE1^HECT (Homo sapiens, UniProt Q7Z6Z7); experiment: Isothermal titration calorimetry (ITC) with HUWE1^HECT; type: binding; settings: 25 °C
T2 construct: the isolated HECT domain of HUWE1 (HUWE1^HECT); made in house
T2 sequence (Q7Z6Z7 4038-4374 limits assumed): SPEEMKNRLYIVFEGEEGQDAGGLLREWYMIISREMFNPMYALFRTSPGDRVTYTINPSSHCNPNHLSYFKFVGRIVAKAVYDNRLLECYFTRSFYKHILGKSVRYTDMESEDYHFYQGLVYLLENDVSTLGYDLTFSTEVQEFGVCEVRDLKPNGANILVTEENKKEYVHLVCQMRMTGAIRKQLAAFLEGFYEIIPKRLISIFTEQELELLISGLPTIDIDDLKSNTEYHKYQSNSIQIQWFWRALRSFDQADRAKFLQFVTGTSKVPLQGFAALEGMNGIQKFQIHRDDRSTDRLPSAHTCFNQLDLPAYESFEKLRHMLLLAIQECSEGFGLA
Experimental: ITC was performed with an ITC200 calorimeter (MicroCal) at 25 °C. The proteins were dialyzed into 20 mM HEPES (pH 7.5), 150 mM NaCl, and 1 mM β-mercaptoethanol (β-ME) overnight. 600 μM HUWE1^HECT or HUWE1^HECT-Ub were applied to the cell and a 10-fold molar excess of BI8626 to the syringe (and vice versa). The reference cell was filled with buffer. Titration experiments included 1 injection of 1.5 μL, followed by 15 injections of 2.4 μL in 3-s intervals, with 150-s spacings between individual injections. The reference power was set to 12 μcal s^−1 and the stirring speed to 270 rpm. To control for instrument functionality, 5 mM CaCl2 were titrated into 0.4 mM EDTA in 10 mM MES (pH 5.6). Data were plotted with OriginPro v.2020b (OriginLab).

HEK293T cells = experiment: Ub remnant profiling (diGly proteomics); type: cell-based, human; settings: 15 μM, 24 h vs DMSO
Experimental: For total proteomics and Ub remnant profiling (diGly proteomics), HEK293T cells were treated with 15 μM BI8626 (in DMSO) or an equivalent volume of DMSO for 24 h, washed with ice-cold 1 x DPBS, and lysed in 9 M urea, 50 mM Tris (pH 8.0) and 150 mM NaCl, supplemented with protease inhibitor (Roche) and 50 µM PR-619, and processed essentially as described. Briefly, the cells were lysed by sonication, non-solubilized material removed by centrifugation, and the protein concentration was determined with a Pierce BCA Protein Assay Kit. 5 mg was used for further MS processing and four biological replicates per condition.
After reduction with 5 mM DTT and alkylation with 10 mM chloroacetamide, followed by quenching with 5 mM DTT, lysates were digested with 5 ng/μl LysC protease (Wako) at RT for 1 h. Subsequent digestion of peptides with trypsin (Promega) at a 1: 200 enzyme: peptide ratio was performed. Desalted and lyophilized peptides were resuspended in 1.5 ml IAP buffer (50 mM MOPS (pH 7.2), 10 mM Na2HPO4, 50 mM NaCl) and centrifuged to remove insoluble material. […]
Data collection was controlled by Tune v.4.0.4084.22 (Thermo Scientific) and Xcalibur v.2.4 (Thermo Fisher Scientific). Raw data files from quadruplicate samples were analyzed using MaxQuant v.1.6.0.1 (Max Planck Institute of Biochemistry)[56],[57]. […]

| Compound | Interaction with HUWE1^HECT-Ub by DSF [1] | Interaction with HUWE1^HECT by ITC (HUWE1^HECT) | Protein ubiquitination changes (diGly proteomics) (HEK293T cells) |
| --- | --- | --- | --- |
| Cc1c(C(=O)Nc2ccc(CN)cc2)ncnc1N1CCC(C#N)(c2ccccc2)CC1 [BI8622] | no interactions between HUWE1^HECT-Ub and the inhibitors could be detected | – | – |
| NCc1cccc(CNc2ncnc3c(N4CCN(Cc5ccccc5)CC4)ncnc23)c1 [BI8626] | no interactions between HUWE1^HECT-Ub and the inhibitors could be detected | No binding was detected | predominantly reductions in protein ubiquitination |
